Legend:
[1] = system: HKB-11 human lymphoma cells; assay: Alamar Blue antiproliferative assay, HKB-11; assay type: cell-based; conditions: HKB-11, 72 h, single postbiotics, GraphPad Prism nonlinear regression, read-out: IC50 (concentration required to inhibit 50% of cell growth)
Procedure: The cell viability of the HKB-11, Hs 313.T, and HS-5 cells after treatment with different concentrations of the seven different postbiotics, including SCFA salts (magnesium acetate, sodium propionate, and sodium butyrate), UA and UB, purine nucleoside (inosine), and bacteriocin (N), was determined using the Alamar Blue assay as per the method described earlier. Briefly, 100 μL of cells was cultured in 96-well plates at a 3 × 10^5 cells/mL seeding density. After 24 h, the cells were treated with 16,000 µM of each postbiotic except for the urolithins, which were applied at 500 µM using a 1:2 serial dilution across a 10-point dose–response curve, followed by a 72 h incubation. A positive control using doxorubicin was prepared at a concentration of 4 μM, and an untreated control with 0.1% DMSO was added to every plate. At the end of the incubation period, the culture media were removed, and 100 μL of a 0.1 mg/mL Alamar Blue solution (resazurin, prepared as a stock solution at 1 mg/mL in freshly made PBS, followed by a 1:10 dilution with serum-free media) was added to each well. The fluorescence levels were assessed using a microplate spectrophotometer (BMG CLARIOstar, Mornington, VIC, Australia) with an excitation wavelength of 555 nm and emission measurement at 595 nm. The compounds were tested in triplicate, with the untreated control taken as 100% cell viability.
Data were collected and managed using MS Office Excel and GraphPad Prism for statistical analyses and visualisation. Data collection and analyses were carried out in triplicate, and the outcomes were presented as the mean ± standard deviation. Statistical significance between the mean values was determined at p ≤ 0.05 employing a two-way ANOVA. Tukey and Dunnett’s tests were utilised within GraphPad Prism software to perform nonlinear regression and multiple comparisons. Furthermore, GraphPad Prism software computed the IC50 value (representing the drug concentration required to achieve a 50% cell growth inhibition). The experimental groups in the proteomics study were compared statistically using unpaired t-tests, assuming equal variances. Candidate proteins were selected based on an absolute log2 fold change ≥ 0.58 and a Q-value ≤ 0.05. Enrichment analysis was subsequently conducted using Ingenuity Pathway Analysis (IPA), applying a significance threshold of adjusted Q ≤ 0.05 to identify functionally enriched pathways, focusing on those with an absolute z-score of ≥1.

[2] = cited from earlier work
Source text: Both N and UB face challenges regarding bioavailability. […] Thus, formulation strategies or delivery systems to enhance systemic exposure warrant exploration in future studies.

[3] = system: HKB-11 lymphoma cells; assay: Flow cytometry apoptosis profile, Annexin V-CF Blue / 7-AAD; assay type: cell-based, human; conditions: 24 h
Procedure: The HKB-11 cells were cultured in T75 cell culture flasks with an initial density of 1 × 10^6 cells per 10 mL at 37 °C in the presence of 5% CO2 for 24 h. The following day, the cell culture media was removed from each flask and replaced with fresh FBS-containing media. […] An FBS-containing medium was used as the untreated control. The flasks were then incubated at 37 °C with 5% CO2 for 24 h. Then, the cell culture media from each flask were collected. Subsequently, trypsin (0.25% w/v) was applied to the flasks for 4 min at 37 °C. The trypsin reaction was neutralised with an equal volume of 10% FBS serum-containing media, and the cells were combined with the previously collected media. The cell pellets were obtained by centrifuging at 500× g for 5 min at room temperature (RT). This procedure was repeated by suspending the cell pellets in 1 mL of PBS each time. The collected cell pellets from each treatment were immediately suspended in 500 μL of 1× binding buffer and gently mixed by pipetting. Annexin V-CF Blue (5 μL) and 7-AAD (5 μL) staining solutions were added to 100 μL of the cell suspension. The stained cells were incubated for 15 min in the dark at RT, after which 400 μL of a 1× assay buffer was added to each cell suspension. Subsequently, the cells were examined using a flow cytometer (Novocyte 3000, ACEA Biosciences Inc., San Diego, CA, USA), and data analysis and processing were performed using NovoExpress software (version 1.5.0, ACEA Biosciences Inc., CA, USA). In the initial step, the cells were gated on forward and side scatter modes to exclude cell aggregates and debris near the origin. The cells were then gated on dot plots, where Annexin V-CF in Pacific Blue was plotted against 7-AAD fluorescence in PerCP. Quadrants were positioned relative to the untreated control, indicating live cells ([…] and −7-AAD) appearing in the lower-left quadrant, early apoptotic cells (+Annexin V and −7-AAD) in the lower-right quadrant, late apoptotic cells (+Annexin V and +7-AAD) in the upper-right quadrant, and necrotic cells (−Annexin V and +7-AAD) in the upper-left quadrant. For statistical analyses and visualisation, the percentage data of cells in each quadrant after different treatments (n = 3) were exported to GraphPad Prism software (version 9.0, San Diego, CA, USA).

[4] = system: HKB-11 lymphoma cells; assay: ROS production, H2DCFDA assay; assay type: cell-based, human; conditions: 4 h
Procedure: Briefly, HKB-11 lymphoma cells (2.5 × 10^5 cells/mL) were cultured in a 96-well plate, allowed to adhere overnight, and treated with 20 μM H2DCFDA for 45 min to assess ROS levels. The dye solution was removed, and cells were washed with 1× buffer. Next, the cells were treated with N (8000 μM), N (4000 μM), UB (500 μM), UB (250 μM), N/UB (3500 μM), N/UB (1750 μM), N/UB (5750 μM), N/UB (2875 μM), Dox (4 μM), and tert-butyl hydroperoxide (TBHP) (150 μM) and then incubated at 37 °C for 4 h. Finally, the plate was immediately read at Ex/Em = 485/535 nm using a microplate spectrophotometer (BMG CLARIOstar, VIC, Australia). The fold change in ROS production was determined relative to the untreated control (cells treated with the supplement buffer according to the manufacturer’s protocol).

IC50 [1] [µM]	Compound	Metabolism [2]	Oral bioavailability [2]	Apoptosis induction compared to the untreated control ([3]; HKB-11, 500 µM, p ≤ 0.0001)	ROS levels compared to the untreated control ([4]; HKB-11, 500 μM and 250 μM, p ≥ 0.05, n = 3)	Proteolytic stability [2]	Stability in the gastrointestinal tract [2]	Systemic absorption [2]	Apoptosis induction ([3]; HKB-11, 3200 µM, p ≤ 0.0001, compared with 8000 μM)	Cell death relative to untreated controls ([3]; HKB-11, 8000 μM, p ≤ 0.01, apoptotic and necrotic populations elevated)	ROS levels compared to the untreated control ([4]; HKB-11, 8000 μM, p ≤ 0.01, n = 3)
87.6	O=c1oc2cc(O)ccc2c2ccccc12 [UB, Urolithin B]	extensively metabolised	moderate oral bioavailability	greater apoptotic induction	minimal changes						
1470	Nisin (ITSISLCTPGCKTGALMGCNMKTATCHCSIHVSK; Lantibiotic nisin-A; UniProt P13068 24-57, looked up) [34-amino-acid lantibiotic peptide (bacteriocin) produced by Lactococcus lactis; purchased]					susceptibility to proteolytic degradation	degraded in the gastrointestinal tract	low systemic absorption	induced apoptosis with greater potency	significantly increased cell death	statistically significant increase

Reference: article PMC12295306, “Gut Microbial Postbiotics as Potential Therapeutics for Lymphoma: Proteomics Insights of the Synergistic Effects of Nisin and Urolithin B Against Human Lymphoma Cells” (International Journal of Molecular Sciences, 2025)
